Source: US6989155B1, “Powders” (Vectura Limited, priority 1998, dated 2006)

Columns and labels:
Assay type in all cases: physicochemical
[1] = Bulk density (poured density) of powder in a 100 cm^3 measuring cylinder; settings: L-leucine samples
Description: The bulk density (or poured density) of a material of the present invention is determined by the following method:
2 g of the material is poured from weighing paper into a 100 cm^3 graduated glass measuring cylinder in an upright position. Transfer of the material from the paper into the cylinder is made as rapidly as flow permits. The volume occupied by the poured powder in the cylinder is measured to the nearest 0.5 ml (bulk volume) and the weight of the powder is determined.
The bulk density of the material is calculated as the weight of the powder divided by the bulk volume.
The bulk density and particle size diameter (as VMD) were determined for the spray-dried leucine. Bulk density and VMD were determined by the method indicated above.
The bulk density and particle size distribution were determined by the methods described in respect of Example 1 above, and are given in Table 3.

[2] = Particle size distribution by low angle laser light scattering (Mastersizer X); settings: for VMD: volume median diameter, dispersant 0.05% lecithin in cyclohexane; for D(v,90): diameter below which 90% of particles by volume reside, unit not given
Description: The particle size distribution was determined by low angle laser light scattering (Mastersizer X, Malvern Instruments, Malvern, UK). To approximately 5 mg of the sample to be analysed 10 ml of dispersant was added (0.05% lecithin in cyclohexane). The sample suspension was sonicated for 30 seconds before analysis. The volume median diameter (VMD) and D(v,90) were determined. VMD is the diameter such that 50% of the particles by volume have a diameter less than the VMD. D(v,90) is the equivalent volume diameter at 90% cumulative volume. The bulk density and particle size diameter (as VMD) were determined for the spray-dried leucine. Bulk density and VMD were determined by the method indicated above.

[3] = Thickness of flakes (electron microscope observation); settings: flakes prepared by the spray drying method
From the text: Observation of the thickness of the flakes may be made by studying electron microscope (SEM) images of the particles. For example, flakes may be mounted on an electron microscope stub with double sided tape and coated with gold prior to examination on an electron microscope. An alternative method for observing the dimensions of particles of the present invention is by sizing the particles on a microscope slide in a similar way to that described in British Pharmacopoeia 1973 (page 645, Ergotamine Aerosol Inhalation). In this case a small quantity of particles, for example 10 to 100 mg, are dropped onto a microscope slide and examined under a microscope to assess the particle size of the deposit.

[4] = Flow properties: poured density, tapped density and Carr's Index; settings: for Poured Density: 250 cm^3 measuring cylinder; for Tapped Density: tapped to constant volume
Description: The flow properties of the L-leucine were determined by measuring the Carr's Index of the powder. Spray-dried L-leucine was added to a powdered protein (BSA-maltodextrin 50:50).
Carr's Index of a sample was determined by measuring the volume (Vpour) of weight (W) poured into a 250 cm^3 measuring cylinder and tapping the cylinder to obtain constant volume of the sample (Vtap). The poured density (bulk density) and the tap density are calculated as W/Vpour and W/Vtap respectively and Carr's Index is calculated from the tapped density and the poured density by the formula [formula]

[5] = listed as unprocessed L-leucine

| SMILES | Bulk Density ([1]; Example 2, Table 3) | VMD [2] | Bulk Density ([1]; Example 1, Table 1) | other results |
| --- | --- | --- | --- | --- |
| CC(C)C[C@H](N)C(=O)O [condensed, L-leucine] | 0.04 gcm^−3 |  |  |  |
| CC(C)C[C@H](N)C(=O)O [milled, L-leucine, reference compound] | 0.30 gcm^−3 | milled (VMD = 18 μm) |  |  |
| CC(C)C[C@H](N)C(=O)O [spray-dried A, L-leucine] |  | 4.2 μm | 0.042 g cm^−3 | D(v,90) [2]: 10.6 |
| CC(C)C[C@H](N)C(=O)O [spray-dried B, L-leucine] |  |  | 0.035 g cm^−3 |  |
| CC(C)C[C@H](N)C(=O)O [spray-dried C, L-leucine] |  |  | 0.029 g cm^−3 |  |
| CC(C)C[C@H](N)C(=O)O [spray-dried L-leucine, L-leucine] |  |  |  | thickness of flakes [3]: less than 100 nm; Poured Density [4]: 0.043 gcm^−3; Tapped Density [4]: 0.055 gcm^−3 |

Now from value to compound, other results behind:

| Bulk Density ([1]; Example 2, Table 3) | VMD [2] | Bulk Density ([1]; Example 1, Table 1) | SMILES | other results |
| --- | --- | --- | --- | --- |
|  |  | 0.035 g cm^−3 | CC(C)C[C@H](N)C(=O)O [spray-dried D, L-leucine] |  |
|  | 3.9 μm | 0.032 g cm^−3 | CC(C)C[C@H](N)C(=O)O [spray-dried E, L-leucine] | D(v,90) [2]: 11.9 |
| 0.70 gcm^−3 |  | 0.710 g cm^−3 | CC(C)C[C@H](N)C(=O)O [unprocessed, L-leucine, reference compound] | Poured Density [4, 5]: 0.710 gcm^−3; Tapped Density [4, 5]: 0.770 gcm^−3 |
